System: E. coli O157:H7
Experiment: Solid-interface AMBR biosensor measurement of bacterial growth in 384 well plate
Type: cell-based
Conditions: antibiotic above the MIC in the surrounding media, 0.5 μg/ml gentamicin
Excerpt: In previous AMBR applications at air-water and/or oil-water interfaces, the rotation period of the sensor slows down in response to bacterial growth; however, on solid interfaces there is an additional “dip” in the beginning of the data. Typical results for measuring bacterial growth, using the solid interface AMBR method are shown in FIG. 11, where the initial speeding up and then slowing down can be seen. […] This is true since the dip (or the slowing down) was not seen in wells with the same amount of bacteria, but that lacked nutrients (performed in PBS buffer), or contained antibiotics above the minimum inhibition concentrations.
Laboratory measurements have established that the speeding up happens with motile and non-motile, gram-negative and gram-positive cells, and with rod-like and coccal bacteria. […]
Anti-E. coli O157 functionalized, 2.8 μm diameter magnetic particles (20 μl, Invitrogen 710-03) were mixed with bacteria diluted to 10^4 CFU/ml (0.9 ml), and allowed to incubate (10 min at 37° C.) with end-over-end agitation. […] For colony counting, the samples were diluted appropriately, plated on a MH plate and the colonies were counted 18 hours later to obtain accurate bacterial concentrations and magnetic separation capture efficiencies. […]

gentamicin
change in rotational period of AMBR biosensor (bacterial growth response): no change in rotational period

From patent US12480846B2, “Multi-mode separation for target detection and cell growth monitoring” (THE REGENTS OF THE UNIVERSITY OF MICHIGAN, priority 2012, dated 2025)
